Results: the supplement of paper PMC13380429

What was measured:
[1] = system: A549-ACE2 infected with SARS-CoV-2; assay: morphology score (similarity to uninfected cells); higher = more like uninfected cells; settings: 24 h
[2] = system: Vero E6; assay: drug sensitivity score (DSS) for viability; higher = more toxic; extreme values may be limits of the assay; settings: 72 h
[3] = system: HepG2; assay: as above; settings: 72 h
[4] = system: Calu-3; assay: as above; settings: 72 h
[5] = system: U2OS; assay: as above; settings: 72 h
[6] = system: A549-ACE2; assay: phospholipidosis EC50; higher = less potent phospholipidosis inducer
[7] = system: A549-ACE2 infected with SARS-CoV-2; assay: cell count relative to DMSO; higher = less toxic; settings: 24 h
[8] = system: Caco-2; assay: cell viability relative to DMSO; higher = less toxic; settings: 72 h
[9] = system: Vero E6; assay: as above; settings: 72 h
[10] = system: HepG2; assay: as above; settings: 72 h
[11] = system: Calu-3; assay: as above; settings: 72 h
[12] = system: U2OS; assay: as above; settings: 72 h
[13] = system: Caco-2; assay: drug sensitivity score (DSS) for viability; higher = more toxic; extreme values may be limits of the assay; settings: 72 h
[14] = system: Vero E6; assay: relative viability EC50 (midpoint between 100% and the lowest measured viability); higher = less toxic; settings: 72 h
[15] = system: HepG2; assay: as above; settings: 72 h
[16] = system: Calu-3; assay: as above; settings: 72 h
[17] = system: U2OS; assay: as above; settings: 72 h
[18] = system: A549-ACE2; assay: drug-induced phospholipidosis relative to tamoxifen; higher = more phospholipidosis
[19] = system: A549-ACE2 infected with SARS-CoV-2; assay: SARS-CoV-2 infection rate relative to DMSO; higher = more infection; settings: 24 h

Cc1ccc(NC(=O)c2ccc(CN3CCN(C)CC3)cc2)cc1Nc1nccc(-c2cccnc2)n1 [imatinib]
Settings | morphology score, 0.3 µM | morphology score, 3 µM | morphology score, 10 µM | morphology score, 30 µM | phospholipidosis EC50, 24 h [µM] | phospholipidosis EC50, 48 h [µM] | phospholipidosis EC50, 72 h [µM]
[1] | 0.28 | 0.55 | 0.73 | -0.03 | – | – | –
[6] | – | – | – | – | 6.11 | 13 | 10

Settings | drug sensitivity score
[2] | 0
[3] | 2.4
[4] | 0.1
[5] | 0

Cc1ccc(NC(=O)c2ccc(CN3CCN(C)CC3)cc2)cc1Nc1nc(-c2cccnc2)cs1 [masitinib]
Settings | SARS-CoV-2 infection rate, [19] [%] | cell count, [7] [%] | cell viability, [8] [%] | cell viability, [9] [%] | cell viability, [10] [%] | cell viability, [11] [%] | cell viability, [12] [%] | morphology score, [1]
1 nM | – | – | 104 | 105 | 105 | 107 | 106 | –
10 nM | – | – | 99.5 | 102 | 103 | 88 | 101 | –
100 nM | – | – | 99.1 | 101 | 99.6 | 97.4 | 104 | –
0.3 µM | 98 | 88 | – | – | – | – | – | 0.14
1000 nM | – | – | 97.3 | 98 | 101 | 97.9 | 98 | –
10000 nM | – | – | 72 | 88.9 | 43.9 | 75.1 | 93.2 | –

Settings | drug sensitivity score | relative viability EC50 [µM]
[2] | 0.1 | –
[3] | 2.9 | –
[4] | 1.2 | –
[5] | 0 | –
[13] | 1.6 | –
[14] | – | > 10
[15] | – | 3.29
[16] | – | > 10
[17] | – | > 10

[18], 0.3 µM
Settings | drug-induced phospholipidosis [%]
24 h | -0.73
48 h | 0.9
72 h | 2.47

O=C(c1ccc(OCCN2CCCCC2)cc1)c1c(-c2ccc(O)cc2)sc2cc(O)ccc12 [raloxifene]
Settings | SARS-CoV-2 infection rate [%] | cell count [%] | cell viability [%] | morphology score | phospholipidosis EC50 [µM]
[1], 0.1 µM | – | – | – | -0.07 | –
[1], 0.3 µM | – | – | – | 0.17 | –
[1], 1 µM | – | – | – | -0.1 | –
[1], 3 µM | – | – | – | 0.42 | –
[6], 72 h | – | – | – | – | 29.8
[7], 0.1 µM | – | 94 | – | – | –
[7], 0.3 µM | – | 102 | – | – | –
[7], 1 µM | – | 97 | – | – | –
[7], 3 µM | – | 106 | – | – | –
[8], 1 nM | – | – | 108 | – | –
[8], 10 nM | – | – | 82.9 | – | –
[8], 100 nM | – | – | 100 | – | –
[8], 1000 nM | – | – | 78.3 | – | –
[8], 10000 nM | – | – | 60.9 | – | –
[9], 1 nM | – | – | 107 | – | –
[9], 10 nM | – | – | 98.8 | – | –
[9], 100 nM | – | – | 99.3 | – | –
[9], 1000 nM | – | – | 94.8 | – | –
[9], 10000 nM | – | – | 67.9 | – | –
[10], 1 nM | – | – | 91.4 | – | –
[10], 10 nM | – | – | 95.2 | – | –
[10], 100 nM | – | – | 93.6 | – | –
[10], 1000 nM | – | – | 101 | – | –
[10], 10000 nM | – | – | 74.1 | – | –
[11], 1 nM | – | – | 102 | – | –
[11], 10 nM | – | – | 92.4 | – | –
[11], 100 nM | – | – | 98.1 | – | –
[11], 1000 nM | – | – | 103 | – | –
[11], 10000 nM | – | – | 79.5 | – | –
[12], 1 nM | – | – | 93 | – | –
[12], 10 nM | – | – | 91.3 | – | –
[12], 100 nM | – | – | 97.7 | – | –
[12], 1000 nM | – | – | 95.4 | – | –
[12], 10000 nM | – | – | 89.9 | – | –
[19], 0.1 µM | 99 | – | – | – | –
[19], 0.3 µM | 97 | – | – | – | –
[19], 1 µM | 104 | – | – | – | –
[19], 3 µM | 84 | – | – | – | –

Settings | drug sensitivity score | relative viability EC50 [µM]
[2] | 2.3 | –
[3] | 1 | –
[4] | 0.5 | –
[5] | 0 | –
[13] | 4.6 | –
[16] | – | > 10
[17] | – | > 10

drug-induced phospholipidosis [%], [18]
Settings | 0.3 µM | 0.833333 µM | 3.33333 µM | 6.66667 µM | 10 µM | 30 µM
24 h | -1.05 | -0.52 | 10.1 | 22.3 | 37.7 | -2.02
48 h | 3.44 | 1.43 | 14.5 | 28.6 | 41 | 26.2
72 h | 4.4 | 2.6 | 17.4 | 36 | 56 | –
